Measured values taken from patent US10604512B2, “3-(1H-indol-2-yl)-1H-indazoles and therapeutic uses thereof” (Samumed, LLC, priority 2015, dated 2020).

How the values were obtained:
Assay type in all cases: cell-based
[1] = tested on: Primary human fibroblasts derived from IPF patients (LL29 cells) treated with TGF-β1; test: Inhibition of the fibrotic process: αSMA staining in TGF-β1-treated primary human fibroblasts from IPF patients (LL29 cells); conditions: Fibroblast, 96 h; for EC50: % αSMA-positive LL29 cells, TGF-β1 20 ng/mL, 4 days; for inhibition at 10 µM: given where EC50 >10 μM, αSMA, LL29 cells, TGF-β1, 4 days, read-out: percent inhibition at 10 μM
Method in brief: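 LL29 IPF-patient fibroblasts in 1% FBS stimulated with TGF-β1 (20 ng/mL) and compound (10 μM–1.87 nM, 0.1% DMSO) for 4 days at 37 °C. SYTOX-positive cells excluded; % αSMA-positive cells imaged, normalized to TGF-β1/DMSO wells; EC50 by nonlinear regression, else % inhibition at 10 μM.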

SW480 colon cancer cells = test: Cell viability assay (CellTiter-Blue) in SW480 colon cancer cells; conditions: Homo sapiens, 96 h, four days; for inhibition at 10 µM: given where EC50 >10 μM, read-out: percent inhibition at 10 μM; for EC50: CellTiter-Blue
Method in brief: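 4-day exposure, 37 °C/5% CO2; ~2×10^3 SW480 cells/well; 8-pt 1:3 curve, 10–0.0045 μM, duplicates vs DMSO controls. Resazurin→resorufin fluorescence readout, ~3 h. EC50 by nonlinear fit; if >10 μM, % inhibition at 10 μM reported.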

[2] = tested on: Wnt activity (Sp5-Luc reporter, TCF/LEF binding sites) in SW480 colon carcinoma cells; test: Screening assay for Wnt activity: Sp5-Luc reporter gene assay in stably transduced SW480 colon carcinoma cells; conditions: Homo sapiens; for EC50: overnight incubation, 10-point curve from 10 μM
Method in brief: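 SW480 cells stably transduced with a luciferase reporter driven by an Sp5 promoter of eight TCF/LEF sites were plated at 4,000 cells/well in 1% FBS medium. They were exposed overnight at 37° C to a 10-point 1:3 dilution series from 10 μM (0.1% DMSO). Luminescence was normalized to DMSO for four-parameter EC50, or percent inhibition at 10 μM.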

SMILES | EC50 (SW480 colon cancer cells) [nM] | EC50 [2] [nM] | EC50 [1] [nM] | inhibition at 10 µM (SW480 colon cancer cells) [%] | inhibition at 10 µM ([2]; at 10 μM, given where EC50 >10 μM, read-out: percent inhibition at 10 μM) [%] | inhibition at 10 µM [1] [%]
CC(C)C(=O)Nc1cncc(-c2ccc3[nH]nc(-c4cc5c(N6CCN(C)CC6)cccc5[nH]4)c3c2)c1 [Compound 233, N-(5-(3-(4-(4-Methylpiperazin-1-yl)-1H-indol-2-yl)-1H-indazol-5-yl)pyridin-3-yl)isobutyramide] | 3160 | 565 | 1310 | – | – | –
FC1(F)CCN(Cc2cncc(-c3ccc4[nH]nc(-c5cc6c(-c7cccnc7)cccc6[nH]5)c4c3)c2)C1 [Compound 110, 5-(5-((3,3-Difluoropyrrolidin-1-yl)methyl)pyridin-3-yl)-3-(4-(pyridin-3-yl)-1H-indol-2-yl)-1H-indazole] | > 10000 | > 10000 | 9980 | 20.3 | 30.1 | –
CC(C)CC(=O)Nc1cncc(-c2ccc3[nH]nc(-c4cc5ncccc5[nH]4)c3c2)c1 [Compound 506, N-(5-(3-(1H-Pyrrolo[3,2-b]pyridin-2-yl)-1H-indazol-5-yl)pyridin-3-yl)-3-methylbutanamide] | 486 | 86 | > 10000 | – | – | 24.2
O=C(Nc1cncc(-c2ccc3[nH]nc(-c4cc5ccccc5[nH]4)c3c2)c1)C1CCC1 [Compound 273, N-(5-(3-(1H-Indol-2-yl)-1H-indazol-5-yl)pyridin-3-yl) cyclobutanecarboxamide] | > 10000 | 685 | > 10000 | 17.8 | – | 3.5

The next lines start with results.

EC50 (SW480 colon cancer cells) [nM] | EC50 [2] [nM] | SMILES | EC50 [1] [nM] | inhibition at 10 µM (SW480 colon cancer cells) [%] | inhibition at 10 µM ([2]; at 10 μM, given where EC50 >10 μM, read-out: percent inhibition at 10 μM) [%] | inhibition at 10 µM [1] [%]
> 10000 | 3560 | c1ccc(-c2ccc3[nH]nc(-c4cc5c(-c6ccncc6)cccc5[nH]4)c3c2)nc1 [Compound 140, 5-(Pyridin-2-yl)-3-(4-(pyridin-4-yl)-1H-indol-2-yl)-1H-indazole] | 1260 | 37.8 | – | –
748 | 60 | Nc1cncc(-c2ccc3[nH]nc(-c4cc5c(-c6ccccn6)cccc5[nH]4)c3c2)c1 [Compound 143, 5-(3-(4-(Pyridin-2-yl)-1H-indol-2-yl)-1H-indazol-5-yl)pyridin-3-amine] | 82 | – | – | –
841 | 169 | CN(C)Cc1cncc(-c2ccc3[nH]nc(-c4cc5c(-c6cccs6)cccc5[nH]4)c3c2)c1 [Compound 349, N,N-Dimethyl-1-(5-(3-(4-(thiophen-2-yl)-1H-indol-2-yl)-1H-indazol-5-yl)pyridin-3-yl)methanamine] | 1150 | – | – | –
> 10000 | 475 | CCCC(=O)Nc1cncc(-c2ccc3[nH]nc(-c4cc5c(-c6ccc(F)cc6)cccc5[nH]4)c3c2)c1 [Compound 45, N-(5-(3-(4-(4-Fluorophenyl)-1H-indol-2-yl)-1H-indazol-5-yl)pyridin-3-yl)butyramide] | 5520 | 5.3 | – | –
> 10000 | 440 | Fc1cccc(-c2cccc3[nH]c(-c4n[nH]c5ccc(-c6ccccn6)cc45)cc23)c1 [Compound 28, 3-(4-(3-Fluorophenyl)-1H-indol-2-yl)-5-(pyridin-2-yl)-1H-indazole] | 6820 | 17.1 | – | –
